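Values below derive from 48-hour exposures of cells grown in 96-well plates, with endpoints linearly interpolated between the two concentrations bracketing the appropriate inhibition level. The concentration for full growth arrest is given as TGI.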
Columns and labels:
Assay in all cases: NCI anticancer screen, dose series, 48 h
786-0 renal = test system: 786-0 renal
SF-268 CNS = test system: SF-268 CNS
SK-OV-3 ovarian = test system: SK-OV-3 ovarian
SF-539 CNS = test system: SF-539 CNS
EKVX NSCLC = test system: EKVX NSCLC
RXF 393 renal = test system: RXF 393 renal
NCI-H226 lung = test system: NCI-H226 lung
IGROV1 ovarian = test system: IGROV1 ovarian
UACC-62 melanoma = test system: UACC-62 melanoma
COLO 205 colon = test system: COLO 205 colon
LOX IMVI melanoma = test system: LOX IMVI melanoma
DU-145 prostate = test system: DU-145 prostate
UO-31 renal = test system: UO-31 renal
SNB-75 CNS = test system: SNB-75 CNS
NCI/ADR-RES ovarian = test system: NCI/ADR-RES ovarian
SN12C renal = test system: SN12C renal
MOLT-4 leukemia = test system: MOLT-4 leukemia
HOP-62 NSCLC = test system: HOP-62 NSCLC
TK-10 renal = test system: TK-10 renal
HCC-2998 colon = test system: HCC-2998 colon
UACC-257 melanoma = test system: UACC-257 melanoma
MALME-3M melanoma = test system: MALME-3M melanoma
OVCAR-8 ovarian = test system: OVCAR-8 ovarian
PC-3 prostate = test system: PC-3 prostate
SR leukemia = test system: SR leukemia
U251 CNS = test system: U251 CNS
M14 melanoma = test system: M14 melanoma
CCRF-CEM leukemia = test system: CCRF-CEM leukemia
OVCAR-4 ovarian = test system: OVCAR-4 ovarian
SK-MEL-5 melanoma = test system: SK-MEL-5 melanoma
SNB-19 CNS = test system: SNB-19 CNS
SW-620 colon = test system: SW-620 colon
BT-549 breast = test system: BT-549 breast
SK-MEL-28 melanoma = test system: SK-MEL-28 melanoma
MDA-MB-231 breast = test system: MDA-MB-231 breast
HCT-116 colon = test system: HCT-116 colon
MDA-N = test system: MDA-N
T-47D breast = test system: T-47D breast
HCT-15 colon = test system: HCT-15 colon
OVCAR-5 ovarian = test system: OVCAR-5 ovarian
HS 578T breast = test system: HS 578T breast
KM12 colon = test system: KM12 colon
A549 NSCLC = test system: A549 NSCLC
CAKI-1 renal = test system: CAKI-1 renal
HL-60(TB) leukemia = test system: HL-60(TB) leukemia
RPMI-8226 leukemia = test system: RPMI-8226 leukemia
NCI-H23 lung = test system: NCI-H23 lung
SF-295 CNS = test system: SF-295 CNS
HT29 colon = test system: HT29 colon
MCF7 breast = test system: MCF7 breast
K-562 leukemia = test system: K-562 leukemia
OVCAR-3 ovarian = test system: OVCAR-3 ovarian
ACHN renal = test system: ACHN renal
NCI-H460 lung = test system: NCI-H460 lung
NCI-H522 lung = test system: NCI-H522 lung
MDA-MB-435 = test system: MDA-MB-435
HOP-92 NSCLC = test system: HOP-92 NSCLC
SK-MEL-2 melanoma = test system: SK-MEL-2 melanoma

Measured: TGI

CC(=O)OC12c3ccccc3C(c3ccccc31)C1C(=O)N(N=C(C)C)C(=O)C12 (stereo unspecified)
not listed: ACHN renal | NCI-H460 lung | NCI-H522 lung | MDA-MB-435 | HOP-92 NSCLC | SK-MEL-2 melanoma
> 100 µM: all other assays above

CC(=O)CCC1(C(=O)OCC(C)C)CCCC1=O (stereo unspecified)
not listed: HCC-2998 colon | SR leukemia | RPMI-8226 leukemia | MCF7 breast
> 100 µM: all other assays above
